Experimental data reported in Sander's compilation of Henry's law constants (doi:10.1016/j.watres.2017.04.074).

assay: Henry solubility constant Hcp at 298.15 K (mol/(m3 Pa)); conditions: reference: Chao et al. (2017)

Point of comparison: `Cc1cccc([N+](=O)[O-])c1` [3-nitrotoluene], “Henry solubility constant Hcp” value 1.3. Against it:
- CC1CCCC(O)C1 (stereo unspecified) [3-methylcyclohexanol] — higher, 2.9
- OCc1ccccc1 [(hydroxymethyl)-benzene] — higher, 17
- ClC1=C(Cl)[C@]2(Cl)[C@@H]3[C@H]4C[C@H]([C@@H]5O[C@H]45)[C@@H]3[C@@]1(Cl)C2(Cl)Cl [endrin] — higher, 1.5
- COC(=O)c1ccccc1C(=O)OC [dimethyl phthalate] — higher, 23
- COP(=S)(OC)Oc1ccc([N+](=O)[O-])cc1 [methylparathion] — higher, 17
- CCOC(=O)CC(SP(=S)(OC)OC)C(=O)OCC (stereo unspecified) [malathion] — higher, 15
- O=[N+]([O-])c1ccc(O)c([N+](=O)[O-])c1 [2,4-dinitrophenol] — higher, 970
- CCNc1nc(NC(C)C)nc(SC)n1 [ametryn] — higher, 21
- Cc1ccccc1O [1-hydroxy-2-methylbenzene] — higher, 6.5
- O=[N+]([O-])c1ccc(Cl)cc1 [4-chloronitrobenzene] — higher, 1.4
- ClC1=C(Cl)C2(Cl)C3C4OC4C(Cl)C3C1(Cl)C2(Cl)Cl (stereo unspecified) [heptachlorepoxide] — lower, 0.96
- ClC1=C(Cl)[C@]2(Cl)[C@@H]3[C@@H]4C[C@@H]([C@H]5O[C@@H]45)[C@@H]3[C@@]1(Cl)C2(Cl)Cl [dieldrin] — lower, 0.65
- CC(C)CO [2-methyl-1-propanol] — lower, 1.2
- O=[N+]([O-])c1ccccc1O [2-nitrophenol] — higher, 9.9
- Nc1cccc(Cl)c1 [1-amino-3-chlorobenzene] — higher, 4.7
- ClC1=C(Cl)[C@]2(Cl)[C@H]3[C@H]([C@@H]4C=C[C@H]3C4)[C@@]1(Cl)C2(Cl)Cl [aldrin] — lower, 0.26
- CNC(=O)Oc1cccc2c1OC(C)(C)C2 [carbofuran] — higher, 24
- O=[N+]([O-])c1cccc(Cl)c1 [3-chloronitrobenzene] — higher, 1.4
- Nc1ccccc1 [aminobenzene] — higher, 4.4
- Cc1cccc(N)c1 [3-methylbenzenamine] — higher, 3.2
- O=[N+]([O-])c1ccccc1 [nitrobenzene] — lower, 0.67
- ClC1C(Cl)C(Cl)C(Cl)C(Cl)C1Cl (stereo unspecified) [γ-1,2,3,4,5,6-hexachlorocyclohexane] — higher, 3.1
- CNC(=O)ON=C(C)SC [methomyl] — higher, 200
- COP(=O)(OC)C(O)C(Cl)(Cl)Cl (stereo unspecified) — higher, 55
- O=[N+]([O-])c1ccc(O)cc1 [4-nitrophenol] — higher, 14
- Cc1ccccc1N [2-methylbenzenamine] — higher, 3
- O=[N+]([O-])c1cccc2ccccc12 [1-nitronaphthalene] — higher, 4.6
- Clc1ccc(C(c2ccc(Cl)cc2)C(Cl)Cl)cc1 [1,1-dichloro-2,2-bis-(4-chlorophenyl)-ethane] — lower, 0.76
- CN(C)C(=O)Nc1ccc(Cl)c(Cl)c1 [diuron] — higher, 35
- Nc1ccccc1Cl [1-amino-2-chlorobenzene] — lower, 0.78
